# Assay results: ChEMBL document CHEMBL1614632, “Trend analysis of a database of intravenous pharmacokinetic parameters in humans for 670 drug compounds” (Drug Metab Dispos, 2008)
# Bridge positions count the residues as written; N and C are the ends. Square brackets hold non-standard residues; d marks the D form. Peptide text beside a SMILES is read from it. hArg = N=C(N)NCCCC[C@H](N)C(=O)O; Mpa = O=C(O)CCS
# Assays:
# [1] = clinical; conditions: human, in vivo, iv, Vdss
# [2] = clinical; conditions: human, in vivo, iv, t1/2
# [3] = clinical; conditions: human, in vivo, iv, CL
# [4] = clinical; conditions: human, in vivo, iv
# [5] = clinical; conditions: human, in vivo, iv; remark: listed apart in the source
Structure (SMILES),Vd [1],half-life [2],clearance [3],fraction unbound [4],MRT [5]
CCn1cc(C(=O)O)c(=O)c2cc(F)c(N3CCNCC3)nc21 [ENOXACIN],2 L/kg,5.1 h,5.4 mL/min/kg,0.8,6.2 h
CSc1ccc(C(=O)c2[nH]c(=O)[nH]c2C)cc1 [ENOXIMONE],1.8 L/kg,1 h,29 mL/min/kg,0.3,1 h
CCCn1c(=O)[nH]c(=O)c2[nH]cnc21 [ENPROFYLLINE],0.63 L/kg,1.8 h,4 mL/min/kg,0.55,2.6 h
N=C(N)NCCCC[C@@H]1NC(=O)CCSSC[C@@H](C(N)=O)NC(=O)[C@@H]2CCCN2C(=O)[C@H](Cc2c[nH]c3ccccc23)NC(=O)[C@H](CC(=O)O)NC(=O)CNC1=O [EPTIFIBATIDE] ([Mpa][hArg]GDWPC-NH2; disulfide 1-7),0.17 L/kg,4.2 h,1.2 mL/min/kg,0.75,2.4 h
CN1C[C@H](C(=O)N[C@]2(C)O[C@@]3(O)[C@@H]4CCCN4C(=O)[C@H](Cc4ccccc4)N3C2=O)C=C2c3cccc4[nH]cc(c34)C[C@H]21 [ERGOTAMINE],3.6 L/kg,2.1 h,15 mL/min/kg,0.02,4 h
CC[C@@H](CO)NCCN[C@@H](CC)CO [ETHAMBUTOL],1.7 L/kg,3.1 h,10 mL/min/kg,0.18,2.7 h
C#C[C@]1(O)CC[C@H]2[C@@H]3CCc4cc(O)ccc4[C@H]3CC[C@@]21C [ETHINYL ESTRADIOL],4.3 L/kg,9.7 h,7 mL/min/kg,0.014,11 h
Cc1ccc(-c2ncc(Cl)cc2-c2ccc(S(C)(=O)=O)cc2)cn1 [ETORICOXIB],1.5 L/kg,26 h,0.79 mL/min/kg,0.081,32 h
NC(N)=Nc1nc(CSCCC(N)=NS(N)(=O)=O)cs1 [FAMOTIDINE],1.2 L/kg,2.8 h,6.6 mL/min/kg,0.84,3 h
COc1ccc(Cl)cc1[C@]1(F)C(=O)Nc2cc(C(F)(F)F)ccc21 [FLINDOKALNER],10 L/kg,37 h,15 mL/min/kg,0.0038,11 h
Nc1nc(F)nc2c1ncn2[C@@H]1O[C@H](CO)[C@@H](O)[C@@H]1O [FLUDARABINE],2.2 L/kg,11 h,3.2 mL/min/kg,0.76,12 h
O=C1OC2(c3ccc(O)cc3Oc3cc(O)ccc32)c2ccccc21 [FLUORESCEIN],0.14 L/kg,1.6 h,1.3 mL/min/kg,0.11,1.8 h
CCC(=O)O[C@]1(C(=O)SCF)[C@H](C)C[C@H]2[C@@H]3C[C@H](F)C4=CC(=O)C=C[C@]4(C)[C@@]3(F)[C@@H](O)C[C@@]21C [FLUTICASONE PROPIONATE],3.6 L/kg,6 h,17 mL/min/kg,0.1,3.9 h
O=P(O)(O)OC(Cn1cncn1)(Cn1cncn1)c1ccc(F)cc1F [FOSFLUCONAZOLE],0.15 L/kg,2.1 h,1.3 mL/min/kg,0.042,2 h
Nc1ccn([C@@H]2O[C@H](CO)[C@@H](O)C2(F)F)c(=O)n1 [GEMCITABINE],1.5 L/kg,1 h,32 mL/min/kg,1,0.81 h
C#C[C@]1(O)C=C[C@H]2[C@@H]3CCC4=CC(=O)CC[C@@H]4[C@H]3CC[C@@]21CC [GESTODENE],0.46 L/kg,10 h,0.8 mL/min/kg,0.023,9.6 h
CN1C(=O)NC(=O)C(C)(C2=CCCCC2)C1=O (stereo not given) [HEXOBARBITAL],1.1 L/kg,4.9 h,3.4 mL/min/kg,0.53,5.4 h
NNc1nncc2ccccc12 [HYDRALAZINE],1.5 L/kg,0.96 h,85 mL/min/kg,0.12,0.29 h
CCN(CCO)CCCC(C)Nc1ccnc2cc(Cl)ccc12 (stereo not given) [HYDROXYCHLOROQUINE],700 L/kg,850 h,11 mL/min/kg,0.57,1300 h
CCCCCN(C)CCC(O)(P(=O)(O)O)P(=O)(O)O [IBANDRONIC ACID],0.55 L/kg,14 h,1.8 mL/min/kg,0.15,5.1 h
CC(=O)[C@]1(O)Cc2c(O)c3c(c(O)c2[C@@H](O[C@H]2C[C@H](N)[C@H](O)[C@H](C)O2)C1)C(=O)c1ccccc1C3=O [IDARUBICIN],38 L/kg,16 h,24 mL/min/kg,0.076,26 h
